# US20060183794A1, “Drug composition containing nf-kb inhibitor” (priority 2002, published 2006)
# Columns and labels:
# [1] = tested on: ICAM-1, VCAM-1, and E-selectin; assay: Western blot of adhesion molecule expression in TNF-α-stimulated HUVECs; assay type: cell-based, human; details: HUVECs pretreated with DHMEQ for 2 hours, 10 ng/ml TNF-α
# Description: The protein concentration of this supernatant was determined by a liquid of Coomassie Brilliant Blue (Bio-Rad), and concentration was adjusted. Subsequently, 3×SDS loading buffer (150 mM Tris-HCl: pH 6.8, 30% glycerol, 3% SDS (Kanto Kagaku), 0.03 mg/ml bromophenol blue, 150 μl/ml 2-mercaptoethanol (Kanto Kagaku)) was added at a volume equal to half the volume of the lysis buffer that had been added, followed by boiling for 5 min. Using this as a sample, electrophoresis was performed in a 12.5% polyacrylamide gel. After the electrophoresis, the proteins in the gel were transferred to a PVDF membrane (Amersham) and blocked with TBS buffer (20 mM Tris-HCl: pH7.6, 137 mM NaCl) containing 5% skim milk (Snow Brand). Subsequently, the proteins were reacted with the PVDF membrane using antibodies to ICAM-1 (Santa Cruz), VCAM-1 (Santa Cruz), and E-selectin (Santa Cruz), followed by reactions with secondary antibodies (the secondary antibodies to ICAM-1, VCAM-1, and E-selectin (Amersham and Santa Cruz)) suitable to each primary antibody. Further, color was developed by the ECL method, followed by exposure to a film.
# [2] = tested on: ATL cell lines (MT-1 and TL-Om1); assay: Hoechst staining apoptosis assay, ATL cell lines; assay type: cell-based, human; details: 10 μg/ml, 72 hours
# Description: DHM2EQ was added to the ATL cell lines (MT-1 and TL-Om1) and a control cell line (K562) at a final concentration of 10 μg/ml, followed by incubation for 72 hours. Subsequently, apoptosis was examined by observing nuclear […] or fragmentation on Hoechst staining with a fluorescence microscope. Cells to which the solvent DMSO had been added in equal volume were also examined in the same manner.
# [3] = tested on: multiple myeloma cell line 196TIB; assay: MTT assay, proliferation of multiple myeloma cell line 196TIB; assay type: cell-based
# Description: Cells from the ATL cell lines (MT-1 and TL-Om1) and a control cell line (K562) were plated in 96-well plates at 1×10^5 cells/well and DHM2EQ was added at the desired final concentrations (2, 5, and 10 μg/ml). Cells to which the solvent DMSO had been added in equal volume (0 μg/ml) were used as […] incubation for 72 hours, cell viability was judged by the MTT assay. Relative MTT values were obtained as the ratio of the MMT values of DHM2EQ-treated cells to those of DHM2EQ-untreated cells, i.e., (MTT values of DHM2EQ-treated cells/MTT values of DHM2EQ-untreated cells)×100(%).
# Concentration dependence analysis of the inhibitory effect of DHM2EQ on proliferation of multiple myeloma cells was performed in the same manner as in Example 2. As multiple myeloma cells, the multiple myeloma cell line 196TIB was used.
# [4] = tested on: MM cell lines, KMM1, RPMI8226, and U266; assay: Apoptosis of multiple myeloma cell lines (Annexin-V, Hoechst staining); assay type: cell-based
# Description: Further, to investigate apoptosis induction of MM cell lines by DHMEQ, the MM cell lines, KMM1, RPMI8226, and U266, were incubated for 0, 24, and 48 hours at a concentration of 10 μg/ml and the apoptosis was examined by Annexin-V staining.
# Further, to confirm apoptosis induction in MM cell lines by DHMEQ, the MM cell lines, KMM1, RPMI8226, and U266, were incubated for 72 hours at a concentration of 10 μg/ml and the apoptosis was examined by observing nuclear condensation or fragmentation with a fluorescence microscope, using Hoechst staining.
# [5] = tested on: human pancreatic cancer cell line PK-2; assay: Human pancreatic cancer PK-2 subcutaneous tumor in SCID mice; assay type: in vivo; details: PK-2 s.c., 12 mg/kg i.p.
# Description: The in vivo suppressive effect of DHMEQ on proliferation of tumor cells in human pancreatic cancer. The human pancreatic cancer cell line PK-2 (2×10^6 cells) was inoculated subcutaneously in the right back of SCID mice (n=7) and then 12 mg/kg DHMEQ was injected intraperitoneally (i.p.) at a dose of 200 μl every other day for five days. Subsequently, the major axis and minor axis of the tumors were measured every seven days. The tumor volume was calculated as follows: (major axis)×(minor axis)^2×0.5.
# [6] = target: NF-κB (Homo sapiens, UniProt P19838+Q04206); assay: Gel shift assay of constitutive NF-κB activation in Hodgkin's lymphoma cell lines; assay type: cell-based; parameters: endogenous in cells; host or cells: HL cell lines KMH2, L428, L540, HDLM2 (A30: KMH2 treated with antitumor agents)
# NF-κB, sequence (P19838 1-433 limits assumed): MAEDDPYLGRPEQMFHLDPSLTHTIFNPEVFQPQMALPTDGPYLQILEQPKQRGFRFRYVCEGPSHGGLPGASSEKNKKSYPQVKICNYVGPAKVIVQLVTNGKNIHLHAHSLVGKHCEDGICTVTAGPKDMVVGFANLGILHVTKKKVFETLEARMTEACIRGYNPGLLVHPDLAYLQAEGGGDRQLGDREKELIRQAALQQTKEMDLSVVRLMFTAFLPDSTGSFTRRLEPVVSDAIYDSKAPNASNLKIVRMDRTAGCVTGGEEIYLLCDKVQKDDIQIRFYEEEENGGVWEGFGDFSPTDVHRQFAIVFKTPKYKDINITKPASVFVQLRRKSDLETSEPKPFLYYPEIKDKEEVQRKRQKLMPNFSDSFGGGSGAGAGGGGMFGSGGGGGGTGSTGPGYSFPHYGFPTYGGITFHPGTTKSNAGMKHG
# NF-κB, sequence (Q04206 whole entry): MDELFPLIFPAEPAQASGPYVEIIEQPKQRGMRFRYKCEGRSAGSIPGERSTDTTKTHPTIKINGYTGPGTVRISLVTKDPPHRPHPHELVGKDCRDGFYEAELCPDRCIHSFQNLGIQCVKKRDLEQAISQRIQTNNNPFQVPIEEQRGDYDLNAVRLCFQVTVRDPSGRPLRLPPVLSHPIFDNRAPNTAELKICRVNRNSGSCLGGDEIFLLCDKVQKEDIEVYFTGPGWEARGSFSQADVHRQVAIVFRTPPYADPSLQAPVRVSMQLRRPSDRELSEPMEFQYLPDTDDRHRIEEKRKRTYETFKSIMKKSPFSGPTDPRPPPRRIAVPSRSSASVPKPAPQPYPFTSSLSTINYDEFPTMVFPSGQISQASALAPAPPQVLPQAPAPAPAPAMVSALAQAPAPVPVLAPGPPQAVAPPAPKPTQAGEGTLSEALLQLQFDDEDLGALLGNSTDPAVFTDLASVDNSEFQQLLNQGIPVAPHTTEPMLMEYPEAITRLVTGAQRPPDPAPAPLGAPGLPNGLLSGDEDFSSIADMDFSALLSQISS
# Description: The ATL cell lines (MT-1 and TL-Om1) and the control cell lines (K562 and Jurkat+TNF), 2×10^6 cells each, were treated with 10 μg/ml DHM2EQ for 12 hours, and nuclear extract was prepared from each cell line. Likewise, nuclear extract was prepared also from the cell lines not treated with DHM2EQ. MT-1 and TL-Om1 are the cell lines transformed with HTLV-1; NF-κB is activated in these cell lines. K562 (myelocytic leukemia cell line) is a cell line in which constitutive NF-κB is not confirmed (a negative control), and Jurkat+TNF is a […] consensus oligomers (Promega) were end-labeled with [γ-^32P]-ATP and polynucleotide kinase (PNK) to prepare ^32P-labeled NF-κB probes.
# The equivalent of 2 μg of nuclear extract protein was mixed with NF-κB probes (the equivalent of 10,000 cpm) in a volume of 20 μl and reacted at room temperature for 30 min. The solution after the reaction was subjected to 7.5% polyacrylamide gel electrophoresis. The gel was then dried and exposed to an X-ray film.
# The HL cell lines, KMH2, L428, L540, and HDLM2, and the control cell line K562 (2×10^6 cells each) were treated with 10 μg/ml DHMEQ for 12 hours, and nuclear extract was prepared from each cell line. The gel shift assay was performed in the same method as in Example 4 (1) and the inhibitory effect on NF-κB was examined. […] Cell line K562 (myelocytic leukemia cell line) is a cell line in which constitutive activation of NF-κB is not observed, and thus used as the negative control. On the other hand, the TNF-treated Jurkat (Jurkat+TNF) was used as the positive control.
# Next, the HL cell lines KMH2 and L540 were treated with 10 μg/ml DHMEQ and nuclear extract was prepared from each cell line. The gel shift assay was performed in the same method as in Example 4 (1) and the time-course inhibitory effect on NF-κB was examined.
# Thus, investigation was performed to determine whether these signals have NF-κB-specific subunits of DHMEQ resistance. Further, the HL cell lines, KMH2, L428L-540, and HDLM2 were treated with 5 μg/ml DHMEQ for 12 hours, and the remaining component of NF-κB was supershifted with antibodies against p50, p65, and c-Rel according to the same method as described in Example 1.
smiles,measurement,setting,value
"O=C(NC1=CC(=O)C2OC2C1O)c1ccccc1O (stereo not shown) [DHMEQ, 5,6-epoxy-4-hydroxy-3-salicyloylamino-2-cyclohexenone]","expression of ICAM-1, VCAM-1 and E-selectin",[1],markedly suppressed
same,"apoptosis (nuclear fragmentation, Hoechst staining)",[2],apoptosis was induced
same,"cell proliferation, concentration dependence",[3],inhibited in proportion to the DHM2EQ concentrations added
same,apoptosis (Annexin-V staining),"[4]; 10 μg/ml, 0, 24, 48 hours",apoptosis had been induced
same,"apoptosis (Hoechst staining, nuclear fragmentation)","[4]; 10 μg/ml, 72 hours",images of nuclear fragmentation by DHMEQ treatment were observed
same,proliferation of tumor cells (tumor volume),[5],significantly suppresses
same,signals by NF-κB (gel shift),"[6]; KMH2, L428, L540, HDLM2, 10 μg/ml, 12 hours",almost lost
same,persistence of inhibition of NF-κB activation,"[6]; KMH2 and L540, 10 μg/ml",sustained even after a lapse of 16 hours
same,"activation of NF-κB, time course (gel shift)","[6]; KMH2 and L540, 10 μg/ml, 1 hour after treatment",almost inhibited
same,remaining NF-κB signals after DHMEQ treatment,[6]; L428 and KMH2,weak signals remain
